Laboratory results taken from ChEMBL document CHEMBL4382266, “Melonoside B and Melonosins A and B, Lipids Containing Multifunctionalized ω-Hydroxy Fatty Acid Amides from the Far Eastern Marine Sponge Melonanchora kobjakovae” (J Nat Prod, 2018).
Calls of active or inactive are those of the source. The calls are words filed in the database; no cut-off is given here.

Experiments:
Type in all cases: cell-based
[1] = (§1) Inhibition of NFkB (unknown origin) expressed in mouse JB6 Cl41 cells after 24 hrs by luciferase reporter gene assay; details: Homo sapiens, JB6 Cl41, 24 h
[2] = target: Cellular tumor antigen p53 (Homo sapiens) (UniProt P04637); test: Inhibition of p53 (unknown origin) expressed in mouse JB6 Cl41 cells after 24 hrs by luciferase reporter gene assay
[3] = Cytotoxicity against mouse JB6 Cl41 cells after 24 hrs assessed as reduction in cell viability at 6 to 12 uM by MTS assay
[4] = target: Transcription factor Jun (Homo sapiens) (UniProt P05412); test: Inhibition of AP-1 (unknown origin) expressed in mouse JB6 Cl41 cells after 24 hrs by luciferase reporter gene assay
[5] = organism: Homo sapiens; test: as §1
[6] = Cytotoxicity against mouse JB6 Cl41 cells after 24 hrs assessed as reduction in cell viability at 25 to 37 uM by MTS assay
[7] = target: Transcription factor Jun (Homo sapiens) (UniProt P05412); test: Inhibition of AP-1 (unknown origin) expressed in mouse JB6 Cl41 cells at 25 uM after 24 hrs by luciferase reporter gene assay relative to control
[8] = organism: Homo sapiens; test: Inhibition of NFkB (unknown origin) expressed in mouse JB6 Cl41 cells at 25 uM after 24 hrs by luciferase reporter gene assay relative to control

Chain of Transcription factor Jun (Homo sapiens) (P05412 whole entry): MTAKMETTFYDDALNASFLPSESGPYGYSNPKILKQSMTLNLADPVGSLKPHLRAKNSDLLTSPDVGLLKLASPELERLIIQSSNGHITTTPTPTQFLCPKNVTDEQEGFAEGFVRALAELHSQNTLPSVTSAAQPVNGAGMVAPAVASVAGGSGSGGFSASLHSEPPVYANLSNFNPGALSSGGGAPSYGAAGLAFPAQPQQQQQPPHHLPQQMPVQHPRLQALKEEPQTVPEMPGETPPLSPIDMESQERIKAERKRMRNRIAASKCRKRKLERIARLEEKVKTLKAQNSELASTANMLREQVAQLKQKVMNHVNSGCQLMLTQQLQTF
Chain of Cellular tumor antigen p53 (Homo sapiens) (P04637 whole entry, looked up): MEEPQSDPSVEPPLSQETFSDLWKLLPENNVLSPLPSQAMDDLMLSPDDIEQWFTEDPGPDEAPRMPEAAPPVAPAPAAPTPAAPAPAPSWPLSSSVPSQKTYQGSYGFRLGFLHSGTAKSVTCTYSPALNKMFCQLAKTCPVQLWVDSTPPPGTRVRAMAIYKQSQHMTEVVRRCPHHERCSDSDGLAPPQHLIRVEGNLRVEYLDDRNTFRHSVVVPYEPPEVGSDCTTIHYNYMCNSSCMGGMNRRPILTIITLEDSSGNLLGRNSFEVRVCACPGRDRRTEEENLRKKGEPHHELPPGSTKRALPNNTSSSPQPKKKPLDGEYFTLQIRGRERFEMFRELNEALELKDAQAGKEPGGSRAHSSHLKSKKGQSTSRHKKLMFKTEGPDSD

IC50 [1] [µM] | inhibition [2] | inhibition [4] | inhibition [7] [%] | Structure (SMILES) | Activity [3] | inhibition [5] | Activity [6] | inhibition [8] [%]
7.2 | inactive | – | – | CO[C@@H](CC/C=C\CCCCC(=O)CCCCCCC(=O)CC/C=C\CCCCCCO)C(=O)NCCc1ccc(O)cc1 | Non-Toxic | – | – | –
– | inactive | inactive | – | CO[C@@H](CC/C=C\CCCCC(=O)CCCCC(=O)CCCCCCCCCCO[C@@H]1O[C@H](C(=O)O)[C@@H](O)[C@H](O)[C@H]1O)C(=O)NCCc1ccc(O)cc1 | – | inactive | – | –
– | inactive | – | 87 | CO[C@@H](CC/C=C\CCCCC(=O)CCCCC(=O)CCCCCCCCCCO)C(=O)NCCc1ccc(O)cc1 | – | – | Non-Toxic | 67
– | inactive | inactive | – | CO[C@@H](CC/C=C\CCCCC(=O)CCCCCCC(=O)CC/C=C\CCCCCCO[C@@H]1O[C@H](C(=O)O)[C@@H](O)[C@H](O)[C@H]1O)C(=O)NCCc1ccc(O)cc1 | – | inactive | – | –
